In publication PMC10747733, “N-Substituted 2-(Benzenosulfonyl)-1-Carbotioamide Derivatives Exert Antimicrobial and Cytotoxic Effects via Aldehyde Dehydrogenase Pathway: Synthesis, In Silico and In Vitro Studies” (Pharmaceuticals, 2023):
In brackets after ≈: the same amount, converted by molar mass.

How the values were obtained:
Test in all cases: Broth microdilution antimicrobial activity
Type in all cases: cell-based
[1] = system: Staphylococcus aureus ATCC 29213; conditions: for MBC / MIC: ATCC29213; for MBC / MIC / MBC/MIC: Staphylococcus aureus ATCC 29213
From the text: (§1) Reference strains of microorganisms that came from American Type Culture Collection (ATCC) (Manassas, VA, USA) were used for this study. The representative Gram-positive bacteria were as follows: Staphylococcus aureus ATCC 25923, Staphylococcus aureus ATCC 29213, Staphylococcus aureus ATCC 43300, Staphylococcus epidermidis ATCC 12228, Enterococcus faecalis ATCC 29212, Micrococcus luteus ATCC 10240, Bacillus subtilis ATCC 6633 and Bacillus cereus ATCC 10876. While, those of Gram-negative bacteria were as follows: Bordetella bronchiseptica ATCC 4617, Escherichia coli ATCC 25922, Klebsiella pneumoniae ATCC 13883, Proteus mirabilis ATCC 12453, Salmonella Typhimurium ATCC 14028 and Pseudomonas aeruginosa ATCC 9027. Moreover, the following fungi belonging to yeasts were used: Candida albicans ATCC 10231, Candida albicans ATCC 2091, Candida parapsilosis ATCC 22019, Candida glabrata ATCC 90030 and Candida krusei ATCC 14243.
(§2) The new compounds WZ1–WZ4 were assayed for both antibacterial and antifungal activity using the broth microdilution method in accordance with the European Committee on Antimicrobial Susceptibility Testing (EUCAST) and Clinical and Laboratory Standards Institute (CLSI) guidelines. The microorganisms were grown at 35 °C for 18–24 h on appropriate media (nutrient agar and Sabouraud for bacteria and fungi, respectively) (BioMaxima S.A., Lublin, Poland). Next, microbial suspensions with an optical density of 0.5 McFarland standard scale (in sterile 0.85% NaCl) were prepared. In turn, the tested compounds were initially diluted at 50 mg/mL in dimethyl sulfoxide (DMSO) and the broth microdilution method was used to assess their minimum inhibitory concentrations (MICs). For these studies, selective broth Mueller-Hinton (MH) (BioMaxima S.A., Lublin, Poland) and RPMI (Roswell Park Memorial Institute) 1640 with MOPS (3-(N-Morpholino)propanesulfonic acid) (Sigma-Aldrich Chemicals, St. Louis, MO, USA) were used for bacteria and fungi, respectively. The antimicrobial effect of compounds WZ1–WZ4 was determined in the concentration range from 2000 to 0.98 µg/mL.
(§3) Then, the microbial suspensions were introduced into each well of the microplate and incubated for 18–24 h at 35 °C. […] The reference drugs ciprofloxacin or vancomycin (against bacteria) and nystatin (against fungi) (Sigma-Aldrich Chemicals, St. Louis, MO, USA) were also used. Next, the values of the minimum bactericidal concentration (MBC) and minimum fungicidal concentration (MFC) of WZ1–WZ4 were assessed. For this purpose, the cultures from each MIC determination well were transferred to a suitable solid medium and incubated under appropriate conditions. The lowest concentrations of compounds without microbial growth were read as MBC or MFC. The studies were performed in triplicate and representative data were gathered.
(§4) In turn, the MBC/MIC or MFC/MIC ratios were used to assess bactericidal/fungicidal (MBC/MIC or MFC/MIC ≤ 4) and bacteriostatic/fungistatic (MBC/MIC or MFC/MIC > 4) effect of these compounds [93].

[2] = system: Staphylococcus aureus ATCC 43300; conditions: for MBC / MIC: ATCC43300; for MBC / MIC / MBC/MIC: Staphylococcus aureus ATCC 43300
From the text: as §1, §2, §3, §4

[3] = system: Candida albicans ATCC 10231; conditions: for MFC: ATCC10231, read-out: MFC; for MIC: ATCC10231, read-out: MIC
From the text: as §1, §2, §3, §4

[4] = system: Pseudomonas aeruginosa ATCC 9027; conditions: for MBC / MIC: ATCC9027
From the text: as §1, §2, §3, §4

[5] = system: Klebsiella pneumoniae ATCC 13883; conditions: for MBC / MIC: ATCC13883
From the text: as §1, §2, §3, §4

[6] = system: Enterococcus faecalis ATCC 29212; conditions: for MBC / MIC: ATCC29212; for MBC / MIC / MBC/MIC: Enterococcus faecalis ATCC 29212; for MBC: read-out: MBC; for MIC: read-out: MIC
From the text: as §1, §2, §3, §4

[7] = system: Micrococcus luteus ATCC 10240; conditions: for MBC / MIC: ATCC10240
From the text: as §1, §2, §3, §4

[8] = system: Candida krusei ATCC 14243; conditions: for MFC / MIC: Pichia kudriavzevii; for MFC: ATCC14243, read-out: MFC; for MIC: ATCC14243, read-out: MIC
From the text: as §1, §2, §3, §4

[9] = system: Bordetella bronchiseptica ATCC 4617; conditions: for MBC / MIC: ATCC4617
From the text: as §1, §2, §3, §4

[10] = system: Salmonella Typhimurium ATCC 14028; conditions: for MBC / MIC: Salmonella enterica
From the text: as §1, §2, §3, §4

[11] = system: Candida albicans ATCC 2091; conditions: for MFC: ATCC2091, read-out: MFC; for MIC: ATCC2091, read-out: MIC
From the text: as §1, §2, §3, §4

[12] = system: Candida parapsilosis ATCC 22019; conditions: for MFC / MIC: Lodderomyces parapsilosis; for MFC: ATCC22019, read-out: MFC; for MIC: ATCC22019, read-out: MIC
From the text: as §1, §2, §3, §4

[13] = system: Staphylococcus aureus ATCC 25923; conditions: for MBC / MIC: ATCC25923
From the text: as §1, §2, §3, §4

[14] = system: Bacillus cereus ATCC 10876; conditions: for MBC / MIC: ATCC10876
From the text: as §1, §2, §3, §4

[15] = system: Bacillus subtilis ATCC 6633; conditions: for MBC / MIC: ATCC6633
From the text: as §1, §2, §3, §4

[16] = system: Proteus mirabilis ATCC 12453; conditions: for MBC / MIC: ATCC12453
From the text: as §1, §2, §3, §4

[17] = system: Escherichia coli ATCC 25922; conditions: for MBC / MIC: ATCC25922
From the text: as §1, §2, §3, §4

[18] = system: Candida glabrata ATCC 90030; conditions: for MFC / MIC: Nakaseomyces glabratus; for MFC: ATCC90030, read-out: MFC; for MIC: ATCC90030, read-out: MIC
From the text: as §1, §2, §3, §4

[19] = system: Staphylococcus epidermidis ATCC 12228; conditions: for MBC / MIC: ATCC12228
From the text: as §1, §2, §3, §4

O=S(=O)(NNC(=S)NC1CCCCC1)c1ccccc1 [WZ1, 2-(Benzenesulfonyl)-N-Cyclohexylhydrazine-1-Carbothioamide]
MBC [1]: > 2000 µg/mL | MIC [1]: 500 µg/mL (≈ 1.6 mM) | MBC/MIC [1]: > 4 | MBC [2]: > 2000 µg/mL | MIC [2]: 500 µg/mL (≈ 1.6 mM) | MBC/MIC [2]: > 4 | MFC/MIC [3]: > 1 | MFC [3]: > 2000 µg/mL | MIC [3]: > 2000 µg/mL | MBC/MIC [4]: > 1 | MBC [4]: > 2000 µg/mL | MIC [4]: > 2000 µg/mL | MBC/MIC [5]: > 1 | MBC [5]: > 2000 µg/mL | MIC [5]: > 2000 µg/mL | MBC [6]: > 2000 µg/mL | MIC [6]: 2000 µg/mL (≈ 6.38 mM) | MBC/MIC [6]: > 1 | MBC/MIC [7]: > 4 | MBC [7]: > 2000 µg/mL | MIC [7]: 500 µg/mL (≈ 1.6 mM) | MFC/MIC [8]: > 1 | MFC [8]: > 2000 µg/mL | MIC [8]: > 2000 µg/mL | MBC/MIC [9]: > 1 | MBC [9]: > 2000 µg/mL | MIC [9]: > 2000 µg/mL | MBC/MIC [10]: > 1 | MBC [10]: > 2000 µg/mL | MIC [10]: > 2000 µg/mL | MFC/MIC [11]: > 1 | MFC [11]: > 2000 µg/mL | MIC [11]: > 2000 µg/mL | MFC/MIC [12]: > 1 | MFC [12]: > 2000 µg/mL | MIC [12]: > 2000 µg/mL | MBC/MIC [13]: > 4 | MBC [13]: > 2000 µg/mL | MIC [13]: 500 µg/mL (≈ 1.6 mM) | MBC/MIC [14]: > 4 | MBC [14]: > 2000 µg/mL | MIC [14]: 500 µg/mL (≈ 1.6 mM) | MBC/MIC [15]: > 4 | MBC [15]: > 2000 µg/mL | MIC [15]: 500 µg/mL (≈ 1.6 mM) | MBC/MIC [16]: > 1 | MBC [16]: > 2000 µg/mL | MIC [16]: > 2000 µg/mL | MBC/MIC [17]: > 1 | MBC [17]: > 2000 µg/mL | MIC [17]: > 2000 µg/mL | MFC/MIC [18]: > 1 | MFC [18]: > 2000 µg/mL | MIC [18]: > 2000 µg/mL | MBC/MIC [19]: > 8 | MBC [19]: > 2000 µg/mL | MIC [19]: 250 µg/mL (≈ 0.798 mM)

CCCCNC(=S)NNS(=O)(=O)c1ccccc1 [WZ2, 2-(Benzenesulfonyl)-N-Butylhydrazine-1-Carbothioamide]
MBC [1]: > 2000 µg/mL | MIC [1]: 2000 µg/mL (≈ 6.96 mM) | bioactivity class ([1]; S. aureus ATCC 29213): no bioactivity (no bioactivity (MIC > 1000 µg/mL)) | MBC/MIC [1]: > 1 | MBC [2]: > 2000 µg/mL | MIC [2]: 2000 µg/mL (≈ 6.96 mM) | bioactivity class ([2]; S. aureus ATCC 43300): no bioactivity (no bioactivity (MIC > 1000 µg/mL)) | MBC/MIC [2]: > 1 | MFC/MIC [3]: > 1 | MFC [3]: > 2000 µg/mL | MIC [3]: 2000 µg/mL (≈ 6.96 mM) | MBC/MIC [4]: > 1 | MBC [4]: > 2000 µg/mL | MIC [4]: > 2000 µg/mL | MBC/MIC [5]: > 1 | MBC [5]: > 2000 µg/mL | MIC [5]: > 2000 µg/mL | MBC [6]: > 2000 µg/mL | MIC [6]: > 2000 µg/mL | bioactivity class ([6]; E. faecalis): no bioactivity (no bioactivity (MIC > 1000 µg/mL)) | MBC/MIC [6]: > 1 | MBC/MIC [7]: 2 | MBC [7]: 2000 µg/mL (≈ 6.96 mM) | MIC [7]: 1000 µg/mL (≈ 3.48 mM) | MFC/MIC [8]: > 1 | MFC [8]: > 2000 µg/mL | MIC [8]: 2000 µg/mL (≈ 6.96 mM) | MBC/MIC [9]: > 1 | MBC [9]: > 2000 µg/mL | MIC [9]: > 2000 µg/mL | MBC/MIC [10]: > 1 | MBC [10]: > 2000 µg/mL | MIC [10]: > 2000 µg/mL | MFC/MIC [11]: > 1 | MFC [11]: > 2000 µg/mL | MIC [11]: 2000 µg/mL (≈ 6.96 mM) | MFC/MIC [12]: > 1 | MFC [12]: > 2000 µg/mL | MIC [12]: 2000 µg/mL (≈ 6.96 mM) | MBC/MIC [13]: > 2 | MBC [13]: > 2000 µg/mL | MIC [13]: 1000 µg/mL (≈ 3.48 mM) | MBC/MIC [14]: 2 | MBC [14]: 2000 µg/mL (≈ 6.96 mM) | MIC [14]: 1000 µg/mL (≈ 3.48 mM) | MBC/MIC [15]: > 2 | MBC [15]: > 2000 µg/mL | MIC [15]: 1000 µg/mL (≈ 3.48 mM) | MBC/MIC [16]: > 1 | MBC [16]: > 2000 µg/mL | MIC [16]: > 2000 µg/mL | MBC/MIC [17]: > 1 | MBC [17]: > 2000 µg/mL | MIC [17]: > 2000 µg/mL | MFC/MIC [18]: > 1 | MFC [18]: > 2000 µg/mL | MIC [18]: > 2000 µg/mL | MBC/MIC [19]: > 2 | MBC [19]: > 2000 µg/mL | MIC [19]: 1000 µg/mL (≈ 3.48 mM)
